In patent publication US10654802B2, “Indoline derivatives and method for using and producing the same” (ARIZONA BOARD OF REGENTS ON BEHALF OF THE UNIVERSITY OF …, priority 2016, dated 2020):

Tests used:
[1] = target: T1, Nox4 (Homo sapiens, UniProt Q9NPH5); experiment: Inhibition of Nox4-dependent H2O2 production in HEK/Nox4 cells, Amplex Red assay; type: cell-based
T1 construct: expressed in transfected cells
T1 sequence (Q9NPH5 1-578): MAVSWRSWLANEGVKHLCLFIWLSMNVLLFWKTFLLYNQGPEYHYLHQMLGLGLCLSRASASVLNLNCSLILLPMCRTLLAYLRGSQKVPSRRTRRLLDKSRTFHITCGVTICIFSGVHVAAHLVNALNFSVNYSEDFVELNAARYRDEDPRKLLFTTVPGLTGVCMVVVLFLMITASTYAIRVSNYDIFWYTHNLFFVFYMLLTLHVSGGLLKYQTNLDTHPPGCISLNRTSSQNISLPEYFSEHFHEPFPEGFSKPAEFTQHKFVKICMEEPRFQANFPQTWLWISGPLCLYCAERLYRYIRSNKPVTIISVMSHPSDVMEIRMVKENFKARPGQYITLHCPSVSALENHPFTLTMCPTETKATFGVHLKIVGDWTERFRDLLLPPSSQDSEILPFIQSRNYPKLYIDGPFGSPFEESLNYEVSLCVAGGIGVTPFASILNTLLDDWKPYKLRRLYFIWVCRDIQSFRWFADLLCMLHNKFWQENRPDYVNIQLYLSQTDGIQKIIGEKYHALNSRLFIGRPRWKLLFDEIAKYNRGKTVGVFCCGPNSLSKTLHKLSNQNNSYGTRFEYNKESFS
T1 sequence (P13498 1-195 partner): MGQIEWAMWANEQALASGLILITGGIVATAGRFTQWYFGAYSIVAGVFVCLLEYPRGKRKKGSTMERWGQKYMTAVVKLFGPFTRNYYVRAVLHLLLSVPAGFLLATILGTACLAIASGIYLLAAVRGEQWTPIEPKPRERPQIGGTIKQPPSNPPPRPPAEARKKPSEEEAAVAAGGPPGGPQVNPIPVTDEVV
Experimental: A high-throughput screening (HTS) assay was established for Nox4 inhibition, utilizing HEK293 cells that stably over-express Nox4 (HEK/Nox4 cells), which generate high levels of H2O2(Cheng G et al, Gene: 2001, p. 131-140). Over 30,000 compounds have been screened and medicinal chemistry efforts have led to the synthesis of numerous analogs and the identification of a chemically distinct series of selective Nox4 inhibitors. […] IC-50 was evaluated for UANox048 (FIG. 1B).
HEK cells stably transfected to overexpress Nox4 were treated with varying concentrations of test compounds, DPI (all-Nox inhibitor positive control), or DMSO (vehicle control) and incubated for 1 h (FIG. 1). (FIG. 1A) H2O2 presence was evaluated by Amplex Red assay. […] Values represent means±SEM; n=4. P values were calculated by student's two-tailed t test. *p<0.05, **p<0.01, *** p<0.001.

[2] = test system: HEK cells stably transfected to overexpress Nox4; experiment: Cellular viability of HEK/Nox4 cells, CellTiter-Glo Assay; type: cell-based; conditions: 1 h, FIG. 2C
Experimental: Screening was performed to rule out false positives.
UANoxO48, DMSO (vehicle control), or catalase (known H2O2 scavenger positive control) was added to a cell-free assay containing exogenous H2O2(5 mM) and scavenger activity for H2O2 was assessed by (FIG. 2A) Amplex Red assay and (FIG. 2B) ROS-Glo assay (an HRP-free assay system to rule out assay interference). (FIG. 2C) HEK cells stably transfected to overexpress Nox4 were treated with UANox048, digitonin (an inducer of cell death), or DMSO (vehicle control) and incubated for 1 h. Cellular viability was evaluated by CellTiter-Glo Assay. Values represent means±SEM; n=4; P values were calculated by student's two-tailed t test. *p<0.05, **p<0.01, *** p<0.001.

[3] = Differential scanning calorimetry (DSC) thermal stability; type: physicochemical; conditions: solid state; room and body temperatures (32-37° C.)
Excerpt: Differential scanning calorimetry (DSC) was used, a highly sensitive thermos-analytical technique to quantify the thermotropic properties and phase transitions of drug candidates. […] X-ray powder diffraction (XRPD) is a non-destructive material science “gold standard” method for measuring the degree of long-range molecular order in the powder. This is critical for solid-state characterization, where drug candidates yield a unique pattern for any given crystalline phase; this provides a ‘molecular fingerprint’ for crystallinity identification. […] Attenuated Total Reflection Fourier Transform Infrared (ATR-FTIR) Spectroscopy is a non-destructive molecular identification tool based on the absorption of infrared light by vibrational transitions in covalent bonds. This provides a ‘molecular fingerprint’ for chemical identification. ATR-FTIR permits fine discrimination between like materials and/or batch-to-batch quality verification; it is used to identify active pharmaceutical ingredients (API). […] Scanning Electron Microscopy (SEM) with Energy Dispersive X-ray (EDX) is used to visualize the synthesized particles in their native solid-state and quantify important particle properties which directly influence formulation, including surface structure, particle morphology and size, and particle size range distribution. […]

[4] = test system: Caco-2 cells; experiment: Caco-2 permeability; type: in vitro ADME; conditions: 5 μM, 2 h
Experimental: (§1) In vitro absorption, distribution, metabolism, and excretion (ADME) were performed on selected analogs to assess their potential for continued pre-clinical development. UANox048 analog has favorable pharmacokinetic/pharmacodynamics properties, including a low molecular weight (384.4 g/mol), calculated log D value (4.07), and polar surface area (57.8 Å^2). The compounds were tested for cellular permeability and P-glycoprotein efflux susceptibility (P-gp efflux). […] P-gp efflux was calculated by comparing permeability through Caco-2 monolayers in both the apical-to-basolateral and basolateral-to-apical directions. Permeability for Caco-2 cells was determined by the lucifer yellow monolayer integrity test. Caco-2 cells were incubated with UANox048 (5 μM, 2 h) and flux of lucifer yellow across cell monolayers was determined by LC-MS/MS using electrospray ionization. Molecular weight, log D, and polar surface area calculations were performed with ChemDraw software.

[5] = target: T2, P-glycoprotein (Homo sapiens, UniProt P08183); experiment: P-glycoprotein efflux susceptibility in Caco-2 monolayers; type: in vitro ADME; conditions: apical-to-basolateral vs basolateral-to-apical
T2 construct: endogenous in cells; host or cells: Caco-2
Experimental: as §1

T2 sequence (P08183 whole entry): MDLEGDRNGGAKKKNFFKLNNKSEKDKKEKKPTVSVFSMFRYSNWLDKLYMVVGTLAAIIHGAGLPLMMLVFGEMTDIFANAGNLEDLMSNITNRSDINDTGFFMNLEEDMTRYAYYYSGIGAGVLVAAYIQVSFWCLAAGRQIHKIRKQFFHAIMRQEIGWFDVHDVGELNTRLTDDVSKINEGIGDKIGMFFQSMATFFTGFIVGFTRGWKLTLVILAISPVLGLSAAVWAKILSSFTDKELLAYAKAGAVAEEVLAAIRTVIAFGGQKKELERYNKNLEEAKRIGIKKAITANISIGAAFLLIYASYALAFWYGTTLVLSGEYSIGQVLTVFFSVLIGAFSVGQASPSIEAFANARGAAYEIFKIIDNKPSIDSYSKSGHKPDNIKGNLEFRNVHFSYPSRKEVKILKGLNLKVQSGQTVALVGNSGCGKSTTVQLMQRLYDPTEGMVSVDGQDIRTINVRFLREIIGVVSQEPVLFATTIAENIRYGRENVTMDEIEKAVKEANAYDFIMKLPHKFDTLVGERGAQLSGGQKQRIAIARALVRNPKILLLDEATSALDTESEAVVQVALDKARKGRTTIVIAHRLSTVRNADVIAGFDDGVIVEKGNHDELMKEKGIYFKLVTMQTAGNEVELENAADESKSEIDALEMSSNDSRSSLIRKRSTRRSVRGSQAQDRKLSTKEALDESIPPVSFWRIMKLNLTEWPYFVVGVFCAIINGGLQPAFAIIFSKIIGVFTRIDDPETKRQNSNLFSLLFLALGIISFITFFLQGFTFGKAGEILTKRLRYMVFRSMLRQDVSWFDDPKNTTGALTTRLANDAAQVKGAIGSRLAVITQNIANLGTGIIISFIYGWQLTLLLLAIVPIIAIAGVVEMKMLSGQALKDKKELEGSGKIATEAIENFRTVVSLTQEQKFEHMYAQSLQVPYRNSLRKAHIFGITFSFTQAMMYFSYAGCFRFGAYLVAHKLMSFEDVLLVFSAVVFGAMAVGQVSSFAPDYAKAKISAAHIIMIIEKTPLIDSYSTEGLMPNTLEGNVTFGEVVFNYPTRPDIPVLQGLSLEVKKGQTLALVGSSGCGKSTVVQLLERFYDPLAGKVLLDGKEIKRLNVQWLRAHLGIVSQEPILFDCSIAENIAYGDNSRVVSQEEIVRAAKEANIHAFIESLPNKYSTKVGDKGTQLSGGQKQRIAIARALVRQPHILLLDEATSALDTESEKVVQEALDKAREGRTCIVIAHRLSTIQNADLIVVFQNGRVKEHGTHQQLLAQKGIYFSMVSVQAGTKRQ

In the case of CC(CNS(=O)(=O)c1ccc(C(F)(F)F)cc1)N1CCc2ccccc21 (stereo not drawn) [UANOX048, N-(2-(indolin-1-yl)propyl)-4-(trifluoromethyl)benzenesulfonamide], the remaining activity at 1 µM ([1]; 1 μM final concentration, 1 h, HEK/Nox4 cells, DMSO vehicle = 1.000, n = 3-10, read-out: H2O2 production relative to vehicle control, Mean) is reported as 89.3%, the remaining activity at 5 µM ([1]; 5 μM final concentration, 1 h, HEK/Nox4 cells, DMSO vehicle = 1.000, n = 3-10, read-out: H2O2 production relative to vehicle control, Mean) is reported as 76.5% and the remaining activity at 10 µM ([1]; 10 μM final concentration, 1 h, HEK/Nox4 cells, DMSO vehicle = 1.000, n = 3-10, read-out: H2O2 production relative to vehicle control, Mean) is reported as 69.3%. The IC50 ([1]; HEK/Nox4 cells, 1 h, Amplex Red, FIG. 1B) was 4.8 µM, the “H2O2 generation by HEK/Nox4 cells” value ([1]; varying concentrations, Amplex Red, FIG. 1A) was “dose-dependent decrease” and the cellular viability [2] was “does not affect cellular viability”. The “stability (DSC)” value [3] was “highly stable”, the Caco-2 permeability [4] was “high” and the P-gp efflux [5] was “no P-gp efflux”.
